Test results reported in PMC9026082, “Madecassic Acid—A New Scaffold for Highly Cytotoxic Agents” (International Journal of Molecular Sciences, 2022).
Structures can show the parent of a compound that is named as a salt.

Legend:
[1] = tested on: A2780 (ovarian carcinoma); assay: SRB cytotoxicity assay, A2780; type: cell-based, human; conditions: Homo sapiens, A2780; SRB assay, 72 h of treatment; cut-off 30 μM
Text: (§1) To assess their cytotoxicity parent, triterpenoic acids 1–3, their acetates 4–6, the amides 7–18, as well as the respective rhodamine B conjugates 19–24 were subjected to SRB assays employing several human tumor cell lines (A375, HT29, MCF-7, A2780, and HeLa) as well as non-malignant fibroblasts (NIH 3T3).
(§2) A detailed description of materials and methods can be found in the Supplementary Materials File. For biological screening, the cell lines were obtained from ATCC: A375 (CRL-1619), HT29 (HTB-38), MCF7 (HTP-22), A2780 (HTP-77), HeLa (CCL-2), and NIH 3T3 (CRL-1573) ^13C NMR spectra (Supplementary Materials) were recorded as APT spectra showing CH and CH3 groups as positive signals and CH2 groups and quaternary carbons as negative signals. […]
(§3) 2. Cytotoxicity assay (SRB assay)
(§4) The cell lines were obtained from Department of oncology (Martin-Luther-University Halle Wittenberg). Cultures were maintained as monolayers in RPMI 1640 medium with L-glutamine (Capricorn Scientific GmbH, Ebsdorfergrund, Germany) supplemented with 10% heat inactivated fetal bovine serum (Sigma -Aldrich Chemie GmbH, Steinheim, Germany) and penicillin/streptomycin (1%, Capricorn Scientific GmbH, Ebsdorfergrund, Germany) at 37 °C in a humidified atmosphere with 5% CO 2.
(§5) The cytotoxicity of the compounds was eva luated using the sulforhodamine -B (Kiton-Red S, ABCR) micro culture colorimetric assay using […] in 96 -well plates with the seeding of the cells on day 0 applying appropriate cell densities to prevent confluence of the cells during the period of the experiment. On day 1, the cells were treated with six di fferent concentrations (1, 3, 7, 12, 20 and 30 μM); thereby, the final concentration of DMSO was always < 0.5%, generally regarded as non-toxic to the cells. On day 4, the supernatant medium was discarded; the cells were fixed with 10 % trichloroacetic acid. After another day at 4 °C, the cells were washed in a strip washer and dyed with the SRB solution (100 μL, 0.4% in 1% acetic acid) for about 20 min to be followed by washing of the plates (four times, 1% acetic acid) and air -drying […]
(§6) overnight. Furthermore, tris base solution (200 μL, 10 mM) was added to each well and absorbance was measured at λ = 570 nm employing a reader (96 wells, Tecan Spectra, Crailsheim, Germany). The EC50 values were averaged from three independent experiments performed each in triplicate calculated from semi logarithmic dose response curves applying a non-linear four-parameter Hills-slope equation (GraphPad Prism5; variables top and bottom were set to 100 and 0, respectively).

[2] = tested on: several human tumor cell lines (A375, HT29, MCF-7, A2780, and HeLa); assay: SRB assays, cell line not given; type: cell-based; conditions: for EC50: Homo sapiens, SRB assays, lowest value of the series, cell line not stated, read-out: EC50 values as low as (analogs of madecassic acid)
Text: as §1, with “3T3). […]” for “3T3).”
as §3, §4, §5, §6

[3] = tested on: A375 (melanoma); assay: SRB cytotoxicity assay, A375; type: cell-based, human; conditions: 72 h of treatment, cut-off 30 μM
Text: as §1, §2, §3, §4, §5, §6

[4] = tested on: MCF7 (breast adenocarcinoma); assay: SRB cytotoxicity assay, MCF7; type: cell-based, human; conditions: Homo sapiens, MCF7, 72 h of treatment, cut-off 30 μM
Text: as §1, §2, §3, §4, §5, §6

[5] = tested on: HT29 (colorectal carcinoma); assay: SRB cytotoxicity assay, HT29; type: cell-based, human; conditions: Homo sapiens, HT-29, 72 h of treatment, cut-off 30 μM
Text: as §1, §2, §3, §4, §5, §6

[6] = tested on: NIH 3T3 (non-malignant fibroblasts); assay: SRB cytotoxicity assay, NIH 3T3; type: cell-based; conditions: Mus musculus, NIH3T3, 72 h of treatment, cut-off 30 μM
Text: as §1, §2, §3, §4, §5, §6

SMILES | melting point [°C] | EC50 [1] [µM] | EC50 ([3]; Homo sapiens, A-375, 72 h) [µM] | EC50 [4] [µM] | EC50 [5] [µM] | EC50 [6] [µM] | other results
C[C@H]1[C@H](C)CC[C@]2(C(=O)O)CC[C@]3(C)C(=CC[C@@H]4[C@@]5(C)C[C@@H](O)[C@H](O)[C@@](C)(CO)[C@@H]5[C@H](O)C[C@]43C)[C@H]12 [Compound 3, Madecassic Acid] | – | > 30 | > 30 | > 30 | > 30 | > 30 | EC50 [2]: ≥ 0.015 µM
CC(=O)OC[C@@]1(C)[C@@H]2[C@H](O)C[C@]3(C)[C@H](CC=C4[C@@H]5[C@@H](C)[C@H](C)CC[C@]5(C(=O)O)CC[C@]43C)[C@@]2(C)C[C@@H](OC(C)=O)[C@@H]1OC(C)=O [Compound 6, (2α,3β,4α,6β) 2,3,23-Tris(acetyloxy)-6-hydroxyurs-12-en-28-oic Acid] | – | 8.1 ± 0.7 | 3.5 ± 0.5 | 7.1 ± 0.6 | 14.5 ± 1.1 | 7.6 ± 0.8 | EC50 [2]: ≥ 0.015 µM
CC(=O)O[C@H]1CC[C@]2(C)[C@H]3CC=C4[C@@H]5CC(C)(C)CC[C@]5(C(=O)NCc5ccccc5)CC[C@@]4(C)[C@]3(C)CC[C@H]2[C@]1(C)C=O [Compound 7, (3β,4α) 3-Acetyloxy-N-(benzyl)-23-oxo-olean-12-en-28-amide] | 119 to 121 | 4.4 ± 0.3 | 3.3 ± 0.3 | 8.8 ± 1.6 | 10.7 ± 1.8 | 18.5 ± 4.6 | –
CC(=O)O[C@H]1CC[C@]2(C)[C@H]3CC=C4[C@@H]5CC(C)(C)CC[C@]5(C(=O)Nc5ccccc5)CC[C@@]4(C)[C@]3(C)CC[C@H]2[C@]1(C)C=O [Compound 8, (3β,4α) 3-Acetyloxy-N-(phenyl)-23-oxo-olean-12-en-28-amide] | 150 to 152 | 19.9 ± 1.4 | 7.9 ± 3.3 | > 30 | > 30 | > 30 | –
CC(=O)O[C@H]1CC[C@]2(C)[C@H]3CC=C4[C@@H]5CC(C)(C)CC[C@]5(C(=O)N5CCNCC5)CC[C@@]4(C)[C@]3(C)CC[C@H]2[C@]1(C)C=O [Compound 9, (3β,4α) 3-Acetyloxy-N-(piperazinyl)-23-oxo-olean-12-en-28-amide] | 150 to 154 | – | – | – | – | – | –
CC(=O)O[C@H]1CC[C@]2(C)[C@H]3CC=C4[C@@H]5CC(C)(C)CC[C@]5(C(=O)N5CCCNCC5)CC[C@@]4(C)[C@]3(C)CC[C@H]2[C@]1(C)C=O [Compound 10, (3β,4α) 3-Acetyloxy-N-(homopiperazinyl)-23-oxo-olean-12-en-28-amide] | 176 to 179 | – | – | – | – | – | –
CC(=O)OC[C@@]1(C)[C@@H]2CC[C@]3(C)[C@H](CC=C4[C@@H]5CC(C)(C)CC[C@]5(C(=O)NCc5ccccc5)CC[C@]43C)[C@@]2(C)CC[C@@H]1OC(C)=O [Compound 11, (3β,4α) 3,23-Bis(acetyloxy)-N-(benzyl)-olean-12-en-28-amide] | 210 to 214 | 1.3 ± 0.3 | 1.1 ± 0.6 | 3.4 ± 0.4 | 3.8 ± 0.7 | > 30 | –
CC(=O)OC[C@@]1(C)[C@@H]2CC[C@]3(C)[C@H](CC=C4[C@@H]5CC(C)(C)CC[C@]5(C(=O)Nc5ccccc5)CC[C@]43C)[C@@]2(C)CC[C@@H]1OC(C)=O [Compound 12, (3β,4α) 3,23-Bis(acetyloxy)-N-(phenyl)-olean-12-en-28-amide] | 210 to 214 | 0.8 ± 0.2 | 0.66 | 1.9 ± 0.1 | 1.9 ± 0.6 | > 30 | EC50 [3]: 0.6 ± 0.2 µM
CC(=O)OC[C@@]1(C)[C@@H]2CC[C@]3(C)[C@H](CC=C4[C@@H]5CC(C)(C)CC[C@]5(C(=O)N5CCNCC5)CC[C@]43C)[C@@]2(C)CC[C@@H]1OC(C)=O [Compound 13, (3β,4α)3,23-Bis(acetyloxy)-N-(piperazinyl)-olean-12-en-28-amide] | 183 to 187 | – | – | – | – | – | –
CCN(CC)c1ccc2c(-c3ccccc3C(=O)N3CCCN(C(=O)[C@]45CCC(C)(C)C[C@H]4C4=CC[C@@H]6[C@@]7(C)CC[C@H](OC(C)=O)[C@@](C)(COC(C)=O)[C@@H]7CC[C@@]6(C)[C@]4(C)CC5)CC3)c3ccc(=[N+](CC)CC)cc-3oc2c1 [Compound 22] | – | 0.018 ± 0.001 | 0.031 ± 0.007 | 0.086 ± 0.01 | 0.083 ± 0.02 | 0.441 ± 0.12 | –
COc1cccc2c1C(=O)c1c(O)c3c(c(O)c1C2=O)C[C@@](O)(C(=O)CO)C[C@@H]3O[C@H]1C[C@H](N)[C@H](O)[C@H](C)O1 [DX, Doxorubicin, reference compound] | – | 0.02 ± 0.01 | – | 1.1 ± 0.3 | 0.9 ± 0.2 | 1.7 ± 0.3 | –
CCN(CC)c1ccc2c(-c3ccccc3C(=O)O)c3ccc(=[N+](CC)CC)cc-3oc2c1 [rhodamine B, reference compound] | – | – | – | – | – | – | cytotoxicity ([2]; SRB assay, cut-off 30 μM): not cytotoxic

Further lines, with some results ahead:

melting point [°C] | SMILES | EC50 [1] [µM] | EC50 ([3]; Homo sapiens, A-375, 72 h) [µM] | EC50 [4] [µM] | EC50 [5] [µM] | EC50 [6] [µM] | other results
243 to 248 | CCN(CC)c1ccc2c(-c3ccccc3C(=O)N3CCCN(C(=O)[C@]45CCC(C)(C)C[C@H]4C4=CC[C@@H]6[C@@]7(C)CC[C@H](OC(C)=O)[C@@](C)(COC(C)=O)[C@@H]7CC[C@@]6(C)[C@]4(C)CC5)CC3)c3ccc(=[N+](CC)CC)cc-3oc2c1 (as salt: chloride) [Compound 22] | – | – | – | – | – | –
228 to 233 | CCN(CC)c1ccc2c(-c3ccccc3C(=O)N3CCN(C(=O)[C@]45CC[C@@H](C)[C@H](C)[C@H]4C4=CC[C@@H]6[C@@]7(C)C[C@@H](OC(C)=O)[C@H](OC(C)=O)[C@@](C)(COC(C)=O)[C@@H]7[C@H](O)C[C@@]6(C)[C@]4(C)CC5)CC3)c3ccc(=[N+](CC)CC)cc-3oc2c1 (as salt: chloride) [Compound 23, N-{6-Diethylamino-9-[2-({4[ (2α,3β,4α,6β)-2,3,23-tris(acetyloxy)-6-hydroxy-28-oxours-12-en-28-yl)-1-piperazinyl]carbonyl]phenyl]-3H-xanthen-3-ylidene)-N-ethylethanaminium Chloride] | – | – | – | – | – | –
269 to 273 | CCN(CC)c1ccc2c(-c3ccccc3C(=O)N3CCCN(C(=O)[C@]45CC[C@@H](C)[C@H](C)[C@H]4C4=CC[C@@H]6[C@@]7(C)C[C@@H](OC(C)=O)[C@H](OC(C)=O)[C@@](C)(COC(C)=O)[C@@H]7[C@H](O)C[C@@]6(C)[C@]4(C)CC5)CC3)c3ccc(=[N+](CC)CC)cc-3oc2c1 (as salt: chloride) [Compound 24, N-{6-Diethylamino-9-[2-({4[ (2α,3β,4α,6β)-2,3,23-tris(acetyloxy)-6-hydroxy-28-oxours-12-en-28-yl)-1,4-diazepan-1-yl}carbonyl]phenyl]-3H-xanthen-3-ylidene)-N-ethylethanaminium Chloride] | – | – | – | – | – | –
176 to 180 | CC(=O)OC[C@@]1(C)[C@@H]2CC[C@]3(C)[C@H](CC=C4[C@@H]5CC(C)(C)CC[C@]5(C(=O)N5CCCNCC5)CC[C@]43C)[C@@]2(C)CC[C@@H]1OC(C)=O [Compound 14, (3β,4α)3,23-Bis(acetyloxy)-N-(homopiperazinyl)-olean-12-en-28-amide] | – | – | – | – | – | –
133 to 138 | CC(=O)OC[C@@]1(C)[C@@H]2[C@H](O)C[C@]3(C)[C@H](CC=C4[C@@H]5[C@@H](C)[C@H](C)CC[C@]5(C(=O)N5CCNCC5)CC[C@]43C)[C@@]2(C)C[C@@H](OC(C)=O)[C@@H]1OC(C)=O [Compound 17, (2α,3β,4α,6β) 2,3,23-Tris(acetyloxy)-N-(piperazinyl)-6-hydroxyurs-12-en-28-amide] | – | – | – | – | – | –
146.5 to 150.5 | CC(=O)OC[C@@]1(C)[C@@H]2[C@H](O)C[C@]3(C)[C@H](CC=C4[C@@H]5[C@@H](C)[C@H](C)CC[C@]5(C(=O)N5CCCNCC5)CC[C@]43C)[C@@]2(C)C[C@@H](OC(C)=O)[C@@H]1OC(C)=O [Compound 18, (2α,3β,4α,6β) 2,3,23-Tris(acetyloxy)-N-(homopiperazinyl)-6-hydroxyurs-12-en-28-amide] | – | – | – | – | – | –
